According to patent US20230085307A1, “PYRIDAZINONE COMPOUND AND HERBICIDE” (NISSAN CHEMICAL CORPORATION, priority 2019, published 2023):

Experiments:
Japanese bulrush = assay: Test Example 2: herbicidal activity, application during weed generation under submerged conditions (Table 17, symbol B); format: in vivo, Japanese bulrush (Schoenoplectus juncoides); details: AAH 320 g/ha; application during weed generation, submerged conditions
Procedure, shortened: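 3-wk visual-criteria score after one water-surface dose. Emulsion formulation, water-diluted to set rate; applied at 1–2 leaf stage; alluvial soil, 4 cm standing water; seeds co-sown; greenhouse 25–30° C.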

Chinese sprangletop = assay: Test Example 3: herbicidal effect by foliage application, Wagner pot (Table 18, symbol D); format: in vivo, chinese sprangletop (Leptochloa chinensis); details: for herbicidal effect on Chinese sprangletop (D): 320 g/ha
Procedure, shortened: (§1)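 Plants were sown in alluvial soil held under 0.1–0.5 cm standing water and grown 14 days in a greenhouse at 25–30 °C. An emulsifiable formulation, water-diluted to the set dose, was then sprayed onto the foliage, and effects were scored three weeks later using previously defined criteria.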

rice flat sedge = assay: Test Example 3: herbicidal effect by foliage application, Wagner pot (Table 18, symbol E); format: in vivo, rice flat sedge (Cyperus iria); details: for herbicidal effect on rice flat sedge (E): 320 g/ha
Procedure, shortened: as §1

green foxtail = assay: Test Example 4: herbicidal effect by soil treatment (Table 19, symbol G); format: in vivo, green foxtail (Setaria viridis); details: amount of applied herbicide 320 g/ha
Procedure, shortened: (§2)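 Step 1: sow seeds in sterilized diluvial soil, cover ~1.5 cm. Step 2: spray diluted emulsion onto soil surface at predetermined rate. Step 3: greenhouse, 25–30° C, three weeks. Step 4: grade effect on each plant by earlier criteria.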

barnyard grass [1] = assay: Test Example 4: herbicidal effect by soil treatment (Table 19, symbol H); format: in vivo, barnyard grass (Echinochloa crus-galli); details: amount of applied herbicide 320 g/ha
Procedure, shortened: as §2

Italian ryegrass [2] = assay: Test Example 4: herbicidal effect by soil treatment (Table 19, symbol K); format: in vivo, Italian ryegrass (Lolium multiflorum); details: amount of applied herbicide 320 g/ha
Procedure, shortened: as §2

lambsquarters [3] = assay: Test Example 4: herbicidal effect by soil treatment (Table 19, symbol O); format: in vivo, lambsquarters (Chenopodium album); details: amount of applied herbicide 320 g/ha
Procedure, shortened: as §2

barnyard grass [4] = assay: Test Example 5: herbicidal effect by foliage application, plastic box (Table 20, symbol H); format: in vivo, barnyard grass (Echinochloa crus-galli); details: foliage application, 320 g/ha, three weeks after application
Procedure, shortened: (§3)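 Foliar spray test: emulsion formulation diluted in water to a set application rate, sprayed onto 14-day-old plants raised in diluvial soil at 25° C to 30° C under glass. Both herbicidal effect and crop effect rated visually three weeks later.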

wild oat = assay: Test Example 5: herbicidal effect by foliage application, plastic box (Table 20, symbol I); format: in vivo, wild oat (Avena fatua); details: foliage application, 320 g/ha, three weeks after application
Procedure, shortened: as §3

blackgrass [5] = assay: Test Example 5: herbicidal effect by foliage application, plastic box (Table 20, symbol J); format: in vivo, blackgrass (Alopecurus myosuroides); details: foliage application, 320 g/ha, three weeks after application
Procedure, shortened: as §3

Italian ryegrass [6] = assay: Test Example 5: herbicidal effect by foliage application, plastic box (Table 20, symbol K); format: in vivo, Italian ryegrass (Lolium multiflorum); details: foliage application, 320 g/ha, three weeks after application
Procedure, shortened: as §3

windgrass = assay: Test Example 5: herbicidal effect by foliage application, plastic box (Table 20, symbol L); format: in vivo, windgrass (Apera spica-venti); details: foliage application, 320 g/ha, three weeks after application
Procedure, shortened: as §3

velvetleaf = assay: Test Example 5: herbicidal effect by foliage application, plastic box (Table 20, symbol M); format: in vivo, velvetleaf (Abutilon theophrasti); details: foliage application, 320 g/ha, three weeks after application
Procedure, shortened: as §3

lambsquarters [7] = assay: Test Example 5: herbicidal effect by foliage application, plastic box (Table 20, symbol O); format: in vivo, lambsquarters (Chenopodium album); details: foliage application, 320 g/ha, three weeks after application
Procedure, shortened: as §3

chickweed = assay: Test Example 5: herbicidal effect by foliage application, plastic box (Table 20, symbol P); format: in vivo, common chickweed (Stellaria media); details: foliage application, 320 g/ha, three weeks after application
Procedure, shortened: as §3

persian speedwell = assay: Test Example 5: herbicidal effect by foliage application, plastic box (Table 20, symbol R); format: in vivo, Persian speedwell (Veronica persica); details: foliage application, 320 g/ha, three weeks after application
Procedure, shortened: as §3

blackgrass [8] = assay: Test Example 4: herbicidal effect by soil treatment (Table 19, symbol J); format: in vivo, blackgrass (Alopecurus myosuroides); details: amount of applied herbicide 320 g/ha
Procedure, shortened: as §2

[9] = amount of applied herbicide 320 g/ha

SMILES | herbicidal effect rating, B: Japanese bulrush (Japanese bulrush) | herbicidal effect on Chinese sprangletop (D) (Chinese sprangletop) | herbicidal effect on rice flat sedge (E) (rice flat sedge) | G: green foxtail, herbicidal effect grade (green foxtail) | H: barnyard grass, herbicidal effect grade (barnyard grass [1]) | K: Italian ryegrass, herbicidal effect grade (Italian ryegrass [2]) | O: lambsquarters, herbicidal effect grade (lambsquarters [3]) | J: blackgrass, herbicidal effect grade (blackgrass [8]) | herbicidal effect on barnyard grass (H) (barnyard grass [4]) | herbicidal effect on wild oat (I) (wild oat) | herbicidal effect on blackgrass (J) (blackgrass [5]) | herbicidal effect on Italian ryegrass (K) (Italian ryegrass [6]) | herbicidal effect on windgrass (L) (windgrass) | herbicidal effect on velvetleaf (M) (velvetleaf) | herbicidal effect on lambsquarters (O) (lambsquarters [7]) | herbicidal effect on persian speedwell (R) (persian speedwell) | other results
C=CCOc1ccc2c(-c3c(O)c(C)nn(C)c3=O)c(-c3ccccc3OC)sc2c1 [3-111] | 3 (Herbicidal rate of 40% or more and less than 70%) | 3 (Herbicidal rate of 40% or more and less than 70%) | 5 (Herbicidal rate of 90% or more (almost completely withered)) | 5 (Herbicidal rate of 90% or more (almost completely withered)) | 4 (Herbicidal rate of 70% or more and less than 90%) | 5 (Herbicidal rate of 90% or more (almost completely withered)) | 5 (Herbicidal rate of 90% or more (almost completely withered)) | – | – | – | – | – | – | – | – | – | H: barnyard grass, herbicidal effect grade (barnyard grass [4]): 5 (Herbicidal rate of 90% or more (almost completely withered)); I: wild oat, herbicidal effect grade (wild oat): 4 (Herbicidal rate of 70% or more and less than 90%); J: blackgrass, herbicidal effect grade (blackgrass [5]): 5 (Herbicidal rate of 90% or more (almost completely withered)); K: Italian ryegrass, herbicidal effect grade (Italian ryegrass [6]): 5 (Herbicidal rate of 90% or more (almost completely withered)); L: windgrass, herbicidal effect grade (windgrass): 5 (Herbicidal rate of 90% or more (almost completely withered)); M: velvetleaf, herbicidal effect grade (velvetleaf): 5 (Herbicidal rate of 90% or more (almost completely withered)); O: lambsquarters, herbicidal effect grade (lambsquarters [7]): 5 (Herbicidal rate of 90% or more (almost completely withered)); P: chickweed, herbicidal effect grade (chickweed): 5 (Herbicidal rate of 90% or more (almost completely withered)); R: persian speedwell, herbicidal effect grade (persian speedwell): 5 (Herbicidal rate of 90% or more (almost completely withered))
COc1ccccc1-c1sc2cc(C)c(C)cc2c1-c1c(O)c(C)nn(C)c1=O [5-090] | 2 (Herbicidal rate of 20% or more and less than 40%) | 2 (Herbicidal rate of 20% or more and less than 40%) | 5 (Herbicidal rate of 90% or more (almost completely withered)) | 0 (Herbicidal rate of 5% or less (almost no effect)) | 0 (Herbicidal rate of 5% or less (almost no effect)) | 5 (Herbicidal rate of 90% or more (almost completely withered)) | 0 (Herbicidal rate of 5% or less (almost no effect)) | 0 (Herbicidal rate of 5% or less (almost no effect)) | 4 (Herbicidal rate of 70% or more and less than 90%) | 0 (Herbicidal rate of 5% or less (almost no effect)) | 4 (Herbicidal rate of 70% or more and less than 90%) | 5 (Herbicidal rate of 90% or more (almost completely withered)) | 4 (Herbicidal rate of 70% or more and less than 90%) | 5 (Herbicidal rate of 90% or more (almost completely withered)) | 4 (Herbicidal rate of 70% or more and less than 90%) | 4 (Herbicidal rate of 70% or more and less than 90%) | –
CCCC(=O)Oc1c(C)nn(C)c(=O)c1-c1c(-c2ccccc2OCC)sc2cc(C)c(C)cc12 [5-095] | 4 (Herbicidal rate of 70% or more and less than 90%) | 5 (Herbicidal rate of 90% or more (almost completely withered)) | 4 (Herbicidal rate of 70% or more and less than 90%) | 0 (Herbicidal rate of 5% or less (almost no effect)) | 0 (Herbicidal rate of 5% or less (almost no effect)) | 0 (Herbicidal rate of 5% or less (almost no effect)) | 0 (Herbicidal rate of 5% or less (almost no effect)) | 0 (Herbicidal rate of 5% or less (almost no effect)) | 4 (Herbicidal rate of 70% or more and less than 90%) | 3 (Herbicidal rate of 40% or more and less than 70%) | 4 (Herbicidal rate of 70% or more and less than 90%) | 4 (Herbicidal rate of 70% or more and less than 90%) | 4 (Herbicidal rate of 70% or more and less than 90%) | 4 (Herbicidal rate of 70% or more and less than 90%) | 3 (Herbicidal rate of 40% or more and less than 70%) | 5 (Herbicidal rate of 90% or more (almost completely withered)) | –
CCOc1cc(F)ccc1-c1sc2cc(C)c(C)cc2c1-c1c(O)c(C)nn(C)c1=O [5-103] | 3 (Herbicidal rate of 40% or more and less than 70%) | 4 (Herbicidal rate of 70% or more and less than 90%) | 5 (Herbicidal rate of 90% or more (almost completely withered)) | 3 (Herbicidal rate of 40% or more and less than 70%) | 1 (Herbicidal rate of 5% or more and less than 20%) | 1 (Herbicidal rate of 5% or more and less than 20%) | 2 (Herbicidal rate of 20% or more and less than 40%) | 0 (Herbicidal rate of 5% or less (almost no effect)) | 5 (Herbicidal rate of 90% or more (almost completely withered)) | 4 (Herbicidal rate of 70% or more and less than 90%) | 4 (Herbicidal rate of 70% or more and less than 90%) | 4 (Herbicidal rate of 70% or more and less than 90%) | 5 (Herbicidal rate of 90% or more (almost completely withered)) | 5 (Herbicidal rate of 90% or more (almost completely withered)) | 4 (Herbicidal rate of 70% or more and less than 90%) | 5 (Herbicidal rate of 90% or more (almost completely withered)) | –
COc1ccccc1-c1sc2c(Cl)c(OC)ccc2c1-c1c(O)c(C)nn(C)c1=O [Compound No. 7-001, 4-(7-chloro-6-methoxy-2-(2-methoxyphenyl)benzo[b]thiophen-3-yl)-5-hydroxy-2,6-dimeth ylpyridazin-3-(2H)-one] | 3 (Herbicidal rate of 40% or more and less than 70%) | – | – | 0 (Herbicidal rate of 5% or less (almost no effect)) | 3 (Herbicidal rate of 40% or more and less than 70%) | 3 (Herbicidal rate of 40% or more and less than 70%) | 5 (Herbicidal rate of 90% or more (almost completely withered)) | – | 5 (Herbicidal rate of 90% or more (almost completely withered)) | 0 (Herbicidal rate of 5% or less (almost no effect)) | 4 (Herbicidal rate of 70% or more and less than 90%) | 5 (Herbicidal rate of 90% or more (almost completely withered)) | 5 (Herbicidal rate of 90% or more (almost completely withered)) | 5 (Herbicidal rate of 90% or more (almost completely withered)) | 4 (Herbicidal rate of 70% or more and less than 90%) | 5 (Herbicidal rate of 90% or more (almost completely withered)) | Herbicidal effect on D (Chinese sprangletop), foliage application (Chinese sprangletop; [9]): 1 (Herbicidal rate of 5% or more and less than 20%); Herbicidal effect on E (rice flat sedge), foliage application (rice flat sedge; [9]): 4 (Herbicidal rate of 70% or more and less than 90%)
